# Experimental data taken from patent US20250289855A1, “ANTIMICROBIAL CaNCR PEPTIDE FOLDING VARIANTS” (Donald Danforth Plant Science Center, priority 2022, published 2025).
# “And” between values parts separate entries of the source, which are not always exact repeats. Equal values may be shown once. Bridge positions count the residues as written; N and C are the ends. Ends that are not written are not given here.
# Assays:
# [1] = tested on: Alternaria alternata; assay: Antifungal MIC, 96-well plate spectrophotometric / resazurin cell viability assay; assay type: cell-based; conditions: Synthetic Fungal Medium
# Experimental: (§1) The fungal strain of Botrytis cinerea T-4 was cultured in 20% V8 growth medium. Alternaria alternata was grown on potato dextrose agar. Fungal spores were harvested by flooding the fungal growth plates with sterile water. The spore suspension was filtered through two layers of Miracloth, centrifuged at 13,600 rpm for 1 min, washed, and re-suspended in low-salt Synthetic Fungal Medium (SFM) (U.S. Pat. No. 6,916,970). The spore suspension was adjusted to equivalent spore density using a hemocytometer.
# Cercospora sojina and Alternaria alternata conidia were harvested from a fully grown culture plate by gently dislodging the conidia with an L-spreader in the presence of 5 ml sterile water. […]
# Antifungal activity of NCR13_PFV1 and NCR13_PFV2 was assessed at different concentrations using a 2-fold dilution series of each peptide. Antifungal activity of each peptide was determined spectrophotometrically using the 96-well plate assay (Sagaram et al., (2011) PLoS One. doi: 10.1371/journal.pone.0018550; Sagaram et al., (2013). PLoS One. 2013 Dec. 4; 8(12):e82485. doi: 10.1371/journal.pone.0082485). […] The quantitative fungal growth inhibition was determined by measuring the absorbance at 595 nm using a microplate reader (Tecan Infinite M200 ProTecan Systems Inc., San Jose, CA) after 48 h. […]
# [2] = tested on: Alternaria alternata; assay: Microscopic observation of antifungal activity (light microscope, 20x); assay type: cell-based; conditions: A. alternata; peptide at 3 μM
# Text: (§2) The presence of germinating conidia/mycelial fragments was observed under a light microscope at 20× magnification. […] (FIG. 3A).
# [3] = tested on: Cercospora sojina; assay: as above; assay type: cell-based
# Text: as §2
# [4] = tested on: S. sclerotiorum 555; assay: Semi-in planta antifungal assay on detached soybean leaves; assay type: in vivo, Sclerotinia sclerotiorum; conditions: 2 dpi
# Experimental: Representative pictures (under white light and with CropReporter based on the value of potential photosynthetic efficiency Fv/Fm) taken 48 h post-infection showing the antifungal activity of NCR13_PFV1.
# (§3) For the semi-in planta antifungal assays, a 1 mm plug was taken from the leading edge of freshly cultured 2-day old fungal colony from PDA media and placed on approximately 3-4 weeks of age detached soybean leaves and pods (6 weeks of age). Then, 40 μL solution of NCR13_PFV1 at various concentrations or water was applied immediately on the plug and were allowed to incubate under high humidity for 2-3 days prior to assessment. The severity of disease lesions on each leaf was assessed using the CropReporter system as described in Li et al. Mol Plant Microbe Interact. 2019; 32:1649-1664. doi: 10.1094/MPMI-08-19-0224-R. Epub 2019 Oct. 28. PMID: 31425003. In addition, high-resolution fluorescence images were taken using CropReporter (PhenoVation, Wageningen, Netherlands).
# [5] = tested on: Sclerotinia sclerotiorum 555; assay: In vitro antifungal activity, 24-well plate mycelial plug assay; assay type: cell-based; conditions: 2 dpi; for SFM MIC: Sclerotinia sclerotiorum 555
# Experimental: Sclerotinia sclerotiorum (S. sclerotiorum) 555 fungal cultures were grown on potato dextrose agar (PDA) medium (Difco Laboratories Inc., Detroit, MI, USA) at room temperature.
# The antifungal activity of NCR13_PFV1 against S. sclerotiorum 555 was measured in an in vitro assay using 24-wells plate assay. Mycelial plugs (1 mm in diameter) cut from the margin of two day-old actively growing colony were transferred from potato dextrose agar media to a series of wells containing 125 microliter (L) of 2×SFM medium (U.S. Pat. No. 6,916,970), with 125 μL of NCR13_PFV1 at varying concentrations of 3, 6, 12 and 24 μM. The plates were incubated at room temperature for 2 days prior to assessment. The mycelium diameter growth was measured 2 dpi using ImageJ software. NCR13 PFV1 peptide effects were calculated as a percentage from the difference between growth of the control and treated mycelium using the formula:
# IG (%)=(Dc−Dt)/Dc×100; where IG is inhibition of growth, Dc is the mycelium diameter (mm) of the control and Dt is the mycelium diameter (mm) of the peptide-treated dishes.
# [6] = tested on: S. sclerotiorum 555; assay: Semi-in planta antifungal assay on detached soybean pods; assay type: in vivo, Sclerotinia sclerotiorum; conditions: 3 dpi
# Experimental: Representative pictures taken 72 h post-infection showing the antifungal activity of NCR13_PFV1.
# as §3
# Detached soybean pods from 6-week-old plants were infected with 1 mm plug of S. sclerotiorum 555 followed by the application of a drop of NCR13_PFV1 on the plug. […] We observed that NCR13_PFV1 confers fungicidal activity with 100% protection against S. sclerotiorum 555 at 3 dpi (FIG. 6).
# [7] = tested on: B. cinerea; assay: Semi-in planta drop-inoculation assay, gray mold on detached N. benthamiana leaves; assay type: in vivo, Botrytis cinerea; conditions: for inhibition of gray mold disease symptoms: 3 μM
# Text: FIG. 4 depicts a drop-inoculation assay showing semi-in planta antifungal activity of NCR13_PFV1 and NCR13_PFV2 in detached N. benthemiana leaves.
# In semi-in-planta studies, detached leaves of N. benthamiana, were used to check the potential of both NCR13_PFV1 and NCR13_PFV2 to reduce gray mold disease symptoms caused by B. cinerea (FIG. 4).
# [8] = tested on: Botrytis cinerea; assay: Tomato fruit infection assay, drop inoculation; assay type: in vivo; conditions: for control of B. cinerea growth in tomato fruits: 0.75 μM peptide, 5 dpi; for visible fungal growth on tomato fruits: B. cinerea, 0.75 μM peptide applied 12 hpi, 3 dpi
# Experimental: Antifungal activity assays were performed on commercially available tomato fruits. A total of 36 tomato fruits (12 fruits per treatment) were washed with 0.01% bleach and rinsed three times with sterile distilled water. Carborundum Powder (Fisher Chemical, USA) was gently rubbed on the fruit surface to create microinjuries. The fruits were inoculated with 20 μl B. cinerea conidia (1×10^5 conidia ml-1) via drop inoculation. Conidia of B. cinerea were prepared as described above. Fruits were incubated in a Ziploc weather shield box containing moist paper towels to maintain high humidity after drop inoculation. 20 μl of peptide solution (0.75 μM of NCR13_PFV1 or NCR13_PFV2) was applied to the drop inoculated conidial suspension at 12 hours post-inoculation (hpi) and incubated for 5 days.
# [9] = tested on: Botrytis cinerea; assay: Antifungal MIC, 96-well plate spectrophotometric / resazurin cell viability assay; assay type: cell-based; conditions: for SFM + 2 mM CaCl2 (antifungal activity/MIC): SFM supplemented with 2 mM CaCl2; for SM + 100 mM NaCl (antifungal activity/MIC): medium supplemented with 100 mM NaCl
# Experimental: as §1
# Antifungal activity of NCR13_PFV1 and NCR13_PFV2 was assessed at different concentrations using a 2-fold dilution series of each peptide. Antifungal activity of each peptide was determined spectrophotometrically using the 96-well plate assay (Sagaram et al., (2011) PLoS One. doi: 10.1371/journal.pone.0018550; Sagaram et al., (2013). PLoS One. 2013 Dec. 4; 8(12):e82485. doi: 10.1371/journal.pone.0082485). Forty-five microliters of each peptide at different concentrations was added to each well of the microtiter plate containing 45 μL of ˜10^5 spores/ml spore suspension. The quantitative fungal growth inhibition was determined by measuring the absorbance at 595 nm using a microplate reader (Tecan Infinite M200 ProTecan Systems Inc., San Jose, CA) after 48 h. The fungal cell viability was determined by the resazurin cell viability assay (Li et al., 2019, MPMI 32, 1649-1664; Velivelli et al., 2020, doi.org/10.1073/pnas.2003526117). After incubation of the pathogen/peptide mixture for 48 h, […] 0.1% resazurin solution was added to each well. After incubation of the mixture overnight, a change in the color of the resazurin dye from blue to pink or colorless indicated the presence of live fungal cells. The MIC for each peptide was the lowest concentration of each peptide at which no change in blue color occurred. Using this protocol, the MIC value of NCR13_PFV1 and NCR13_PFV2 was also determined in presence of 100 mM NaCl and 2 mM CaCl2).
# The MIC of NCR13_PFV1 and NCR13_PFV2 against B. cinerea was determined (Table 3). MIC assays were carried out in 2×SFM. […] We therefore determined antifungal activity of NCR13_PFV1 and NCR13_PFV2 in SFM supplemented with 100 mM NaCl or 2 mM CaCl2) (Table 3).
# [10] = tested on: Cercospora sojina; assay: as above; assay type: cell-based; conditions: Synthetic Fungal Medium
# Experimental: Cercospora sojina and Alternaria alternata conidia were harvested from a fully grown culture plate by gently dislodging the conidia with an L-spreader in the presence of 5 ml sterile water. To remove mycelial fragments, the spore suspension was filtered through three layers of miracloth and washed twice with sterile water at 13,000 rpm for 2 minutes. The spore concentration was adjusted to 1×10^5 spores/ml using a hemocytometer.
# Antifungal activity of NCR13_PFV1 and NCR13_PFV2 was assessed at different concentrations using a 2-fold dilution series of each peptide. Antifungal activity of each peptide was determined spectrophotometrically using the 96-well plate assay (Sagaram et al., (2011) PLoS One. doi: 10.1371/journal.pone.0018550; Sagaram et al., (2013). PLoS One. 2013 Dec. 4; 8(12):e82485. doi: 10.1371/journal.pone.0082485). Forty-five microliters of each peptide at different concentrations was added to each well of the microtiter plate containing 45 μL of ˜10^5 spores/ml spore suspension. The quantitative fungal growth inhibition was determined by measuring the absorbance at 595 nm using a microplate reader (Tecan Infinite M200 ProTecan Systems Inc., San Jose, CA) after 48 h. The fungal cell viability was determined by the resazurin cell viability assay (Li et al., 2019, MPMI 32, 1649-1664; Velivelli et al., 2020, doi.org/10.1073/pnas.2003526117). […]
substance,measurement,setting,value
"NCR13_PFV1: NCR13-Ala peptide (SEQ ID NO: 2) expressed in Pichia pastoris, HPLC Peak1 folding variant (ATKPCQSDKDCKKFACRKPKVPKCINGFCKCVR; disulfide 11-29, 16-31, 5-24)",SFM MIC,[1],0.75 µM
same,conidial germination / mycelial growth under the microscope,[2],complete inhibition of conidial germination
same,concentration at which C. sojina growth was inhibited (microscopy),[3],0.18 µM
same,lesion size,[4],significantly decreased lesion sizes
same,S. sclerotiorum 555 mycelial growth in vitro,"[5]; 3, 6, 12 and 24 μM",progressively reduced in size with increasing concentrations
same,SFM MIC,[5],6 µM and 6.0 µM
same,protection against S. sclerotiorum 555,[6],100%
same,lesion or decay development,[6]; compared to water control,no lesion or decay development
same,activity against gray mold disease relative to NCR13_PFV2,[7],two-fold higher activity
same,inhibition of gray mold disease symptoms,[7],completely inhibitory
same,control of B. cinerea growth in tomato fruits,[8],effective in controlling B. cinerea fungal growth
same,control of B. cinerea growth in tomato fruits,[8]; listed as NCR13 PFV1,effective
same,visible fungal growth on tomato fruits,[8],no visible fungal growth
same,antifungal activity of NCR13_PFV1 relative to NCR13_PFV2 (from MIC),[9],fourfold or greater
same,SFM + 2 mM CaCl2 (antifungal activity/MIC),[9],Inactive
same,SM + 100 mM NaCl (antifungal activity/MIC),[9],Inactive
"NCR13_PFV2: NCR13-Ala peptide (SEQ ID NO: 2) expressed in Pichia pastoris, HPLC Peak2 folding variant (ATKPCQSDKDCKKFACRKPKVPKCINGFCKCVR; not fully specified; cysteine pairing not given here)",SFM MIC,[1],3 µM and 3.0 µM
same,conidial germination / mycelial growth under the microscope,[2],significant mycelial growth
same,concentration at which C. sojina growth was inhibited (microscopy),[3],3 µM
same,fold higher inhibitory concentration versus the other folding variant,[3]; C. sojina,~17
same,SFM MIC,[10],1.5 µM
same,SFM MIC,[5],24.0 µM
same,inhibition of gray mold disease symptoms,[7],only partially inhibitory
same,visible fungal growth on tomato fruits,[8],visible fungal growth
same,SFM + 2 mM CaCl2 (antifungal activity/MIC),[9],Inactive
same,SFM MIC,"[9]; Synthetic Fungal Medium, 48 h, resazurin",1.5 µM
same,SM + 100 mM NaCl (antifungal activity/MIC),[9],Inactive
